From patent US10953027B2, “Active agents and methods of their use for the treatment of metabolic disorders and nonalcoholic fatty liver disease” (Flagship Pioneering Innovations V, Inc., priority 2018, dated 2021)

Legend:
Format in all cases: in vitro ADME
[1] = Assay 3. Fecal Incubation Stability; conditions: 1 or 10 μM, human fecal slurry, anaerobic
Protocol: Assay 3. Fecal Incubation Stability. This assay was used to assess the stability of an acylated active agent in a large intestine. All experiments were performed in an anaerobic chamber containing 90% nitrogen, 5% hydrogen and 5% carbon dioxide. Human fecal matter in a slurry (15% WV) is added to 96 well plates containing YCFA media or other suitable media (1.6 mL). Compounds were added to each individual well to reach a final analyte concentration of 1 or 10 μM, and the material was mixed by pipetting. At set time points a sample was removed, quenched with acetonitrile, and analyzed by LC/MS.

[2] = Assay 2. Stability in Simulated Intestinal Fluid (SIF); conditions: 1 μM, 37° C., SIF pH 6.7 with pancreatin
Procedure, shortened: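 Degradation rate measured by LC/MS after acetonitrile quench of timed aliquots, starting at T0. Test compound 1 μM in simulated intestinal fluid (pH 6.7 phosphate buffer, FaSSIF powder, pancreatin), shaken at 37 °C.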

[3] = Assay 1. Stability in Simulated Gastric Fluid (SGF); conditions: 1 μM, 37° C., SGF pH 1.6 with pepsin
Procedure, shortened: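 Simulated gastric fluid, prepared fresh as NaCl buffer at pH 1.6 with 0.1 mg/mL pepsin and FaSSIF powder, received test compound to 1 μM final and was held at 37 °C. LC/MS of acetonitrile-quenched samples, taken immediately and then periodically, gave degradation rates.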

SMILES | Assay 3 (% Remaining at 24 h) [1] | Assay 2 (SIF) (% @ Remaining 4 hours) [2] | Assay 1 (SGF) (% Remaining @ 1 hours) [3]
CCC(=O)OC[C@H]1O[C@@H](OC)[C@H](OC(=O)CC)[C@@H](OC(=O)CC)[C@@H]1OC(=O)CC [Compound 92, [(2R,3R,4S,5R,6R)-6-methoxy-3,4,5-tris(propanoyloxy)oxan-2-yl]methyl Propanoate] | A (A: <25% of the tested compound remaining) | A (A: <25% of the tested compound remaining) | –
O=C(Cc1c[nH]c2ccccc12)Oc1ccc(/C=C/c2cc(OC(=O)Cc3c[nH]c4ccccc34)cc(OC(=O)Cc3c[nH]c4ccccc34)c2)cc1 [Compound 260, 4-[(1E)-2-[3,5-bis({[2-(1H-indol-3-yl)acetyl]oxy})phenyl]ethenyl]phenyl 2-(1H-indol-3-yl)acetate] | A (A: <25% of the tested compound remaining) | – | –
[2H]C([2H])([2H])C([2H])([2H])CC(=O)O[C@@H]1[C@@H](OC(=O)CC([2H])([2H])C([2H])([2H])[2H])[C@H](Oc2ccc(N)cc2C(=O)O)OC[C@H]1OC(=O)CC([2H])([2H])C([2H])([2H])[2H] [Compound 230, 5-amino-2-{[(2S,3R,4S,5R)-3,4,5-tris[(3,3,4,4,4-^2H5)butanoyloxy]oxan-2-yl]oxy}benzoic Acid] | B (B: 25-75% of the tested compound remaining) | – | –
[2H]C([2H])([2H])C([2H])([2H])CC(=O)O[C@@H]1[C@@H](OC(=O)CC([2H])([2H])C([2H])([2H])[2H])[C@H](Oc2ccc(N)cc2C(=O)O)OC[C@H]1O [Compound 234, 5-amino-2-{[(2S,3R,4S,5R)-3,4-bis[(3,3,4,4,4-^2H5)butanoyloxy]-5-hydroxyoxan-2-yl]oxy}benzoic Acid] | B (B: 25-75% of the tested compound remaining) | – | –
CCCC(=O)OC[C@H]1O[C@@H](OC)[C@H](OC(=O)CCC)[C@@H](OC(=O)CCC)[C@H]1OC(=O)CCC [Compound 93, [(2R,3S,4S,5R,6R)-3,4,5-tris(butanoyloxy)-6-methoxyoxan-2-yl]methyl Butanoate] | A (A: <25% of the tested compound remaining) | A (A: <25% of the tested compound remaining) | –
CC(=O)Oc1ccc(-c2oc3cc(OC(C)=O)cc(OC(C)=O)c3c(=O)c2OC(C)=O)cc1 [Compound 20, [4-(3,5,7-triacetoxy-4-oxo-chromen-2-yl)phenyl] acetate] | – | A (A: <25% of the tested compound remaining) | C (C: >75% of the tested compound remaining)
O=C(Cc1c[nH]c2ccccc12)O[C@@H]1OC[C@H](OC(=O)Cc2c[nH]c3ccccc23)[C@H](OC(=O)Cc2c[nH]c3ccccc23)[C@H]1OC(=O)Cc1c[nH]c2ccccc12 [Compound 178, (2S,3R,4S,5S)-3,4,5-tris({[2-(1H-indol-3-yl)acetyl]oxy})oxan-2-yl 2-(1H-indol-3-yl)acetate] | A (A: <25% of the tested compound remaining) | – | –
CCC(=O)OC[C@H]1OC(O)[C@H](OC(=O)CC)[C@@H](OC(=O)CC)[C@@H]1OC(=O)CC (stereo partly drawn) [Compound 142, [(2R,3R,4S,5R)-6-hydroxy-3,4,5-tris(propanoyloxy)oxan-2-yl]methyl Propanoate] | – | A (A: <25% of the tested compound remaining) | C (C: >75% of the tested compound remaining)
CCC(=O)OC1O[C@@H](C)[C@@H](OC(=O)CC)[C@@H](OC(=O)CC)[C@@H]1OC(=O)CC (stereo partly drawn) [Compound 157, (3S,4R,5R,6S)-6-methyl-3,4,5-tris(propanoyloxy)oxan-2-yl Propanoate] | – | A (A: <25% of the tested compound remaining) | C (C: >75% of the tested compound remaining)
CCCC(=O)Nc1ccc(O)c(C(=O)O)c1 [Compound 40, 5-(butanoylamino)-2-hydroxy-benzoic Acid] | – | C (C: >75% of the tested compound remaining) | C (C: >75% of the tested compound remaining)
CCC(=O)O[C@@H]1[C@H](OC(=O)CC)[C@H](C)OC(O)[C@H]1OC(=O)CC (stereo partly drawn) [Compound 156, (3S,4R,5R,6S)-2-hydroxy-6-methyl-4,5-bis(propanoyloxy)oxan-3-yl Propanoate] | – | A (A: <25% of the tested compound remaining) | C (C: >75% of the tested compound remaining)
C[C@@H](O)CCOC(=O)c1cc(N)ccc1O [Compound 39, [(3R)-3-hydroxybutyl] 5-amino-2-hydroxy-benzoate] | – | C (C: >75% of the tested compound remaining) | C (C: >75% of the tested compound remaining)
CCC(=O)O[C@@H]1[C@H](OC(=O)CC)C=C(C(=O)O)C[C@H]1OC(=O)CC [Compound 254, (3R,4S,5R)-3,4,5-tris(propanoyloxy)cyclohex-1-ene-1-carboxylic Acid] | B (B: 25-75% of the tested compound remaining) | – | –
O=C(CCc1c[nH]c2ccccc12)O[C@H]1OC[C@@H](OC(=O)CCc2c[nH]c3ccccc23)[C@@H](OC(=O)CCc2c[nH]c3ccccc23)[C@H]1OC(=O)CCc1c[nH]c2ccccc12 [Compound 182, (2R,3R,4R,5R)-3,4,5-tris({[3-(1H-indol-3-yl)propanoyl]oxy})oxan-2-yl 3-(1H-indol-3-yl)propanoate] | – | A (A: <25% of the tested compound remaining) | C (C: >75% of the tested compound remaining)
CCCC(=O)OC[C@@H](OC(=O)CCC)[C@@H](OC(=O)CCC)[C@H](OC(=O)CCC)[C@@H](OC(=O)CCC)C(=O)Oc1ccc(/C=C/c2cc(OC(=O)[C@H](OC(=O)CCC)[C@@H](OC(=O)CCC)[C@H](OC(=O)CCC)[C@@H](COC(=O)CCC)OC(=O)CCC)cc(OC(=O)[C@H](OC(=O)CCC)[C@@H](OC(=O)CCC)[C@H](OC(=O)CCC)[C@@H](COC(=O)CCC)OC(=O)CCC)c2)cc1 [Compound 19, [4-[(E)-2-[3,5-bis[[(2R,3S,4R,5R)-2,3,4,5,6-penta(butanoyloxy)hexanoyl]oxy]phenyl]vinyl]phenyl] (2R,3S,4R,5R)-2,3,4,5,6-penta(butanoyloxy)hexanoate] | – | B (B: 25-75% of the tested compound remaining) | B (B: 25-75% of the tested compound remaining)
CCCC(=O)Oc1ccc2c(c1)oc(=O)c1cc(OC(=O)CCC)c(OC(=O)CCC)cc12 [Compound 248, 8,9-bis(butanoyloxy)-6-oxo-6H-benzo[c]chromen-3-yl Butanoate] | A (A: <25% of the tested compound remaining) | – | –
CCC(=O)O[C@H]1[C@H](OC(=O)CC)[C@H](OC(=O)Cc2c[nH]c3ccccc23)O[C@@H](C)[C@H]1OC(=O)CC [Compound 150, (2S,3S,4R,5R,6S)-2-{[2-(1H-indol-3-yl)acetyl]oxy}-6-methyl-4,5-bis(propanoyloxy)oxan-3-yl Propanoate] | – | A (A: <25% of the tested compound remaining) | C (C: >75% of the tested compound remaining)
CCCC(=O)O[C@H](C)CC(=O)Oc1ccc(/C=C/c2cc(OC(=O)C[C@@H](C)OC(=O)CCC)cc(OC(=O)C[C@@H](C)OC(=O)CCC)c2)cc1 [Compound 13, [4-[(E)-2-[3,5-bis[[(3R)-3-butanoyloxybutanoyl]oxy]phenyl]vinyl]phenyl] (3R)-3-butanoyloxy-butanoate] | – | B (B: 25-75% of the tested compound remaining) | C (C: >75% of the tested compound remaining)
CCCC(=O)O[C@@H]1[C@@H](OC(=O)CCC)[C@@H](OC(=O)CCc2c[nH]c3ccccc23)OC[C@@H]1OC(=O)CCC [Compound 114, (2R,3R,4S,5S)-4,5-bis(butanoyloxy)-2-{[3-(1H-indol-3-yl)propanoyl]oxy}oxan-3-yl Butanoate] | – | A (A: <25% of the tested compound remaining) | B (B: 25-75% of the tested compound remaining)
CCCC(=O)Oc1ccc([C@@H]2CC(=O)c3c(OC(=O)CCC)cc(OC(=O)CCC)cc3O2)cc1 [Compound 22, (S)-2-(4-(butyryloxy)phenyl)-4-oxochromane-5,7-diyl dibutyrate] | – | A (A: <25% of the tested compound remaining) | B (B: 25-75% of the tested compound remaining)
Cc1c(C)c2c(c(C)c1OC(=O)C1OCC[C@@H](C)O1)CC[C@@](C)(CCC[C@H](C)CCC[C@H](C)CCCC(C)C)O2 (stereo partly drawn) [Compound 66, [(2R)-2,5,7,8-tetramethyl-2-[(4R,8R)-4,8,12-trimethyltridecyl]chroman-6-yl] (4R)-4-methyl-1,3-dioxane-2-carboxylate] | – | A (A: <25% of the tested compound remaining) | C (C: >75% of the tested compound remaining)
CC(=O)OCC[C@@H](C)OC(=O)Oc1ccc(/C=C/c2cc(OC(=O)O[C@H](C)CCOC(C)=O)cc(OC(=O)O[C@H](C)CCOC(C)=O)c2)cc1 [Compound 24, [(3R)-3-[4-[(E)-2-[3,5-bis[[(1R)-3-acetoxy-1-methyl-propoxy]carbonyloxy]phenyl]vinyl]phenoxy]carbonyloxybutyl] acetate] | – | A (A: <25% of the tested compound remaining) | C (C: >75% of the tested compound remaining)
